Source: patent publication US4307194A, “Inhibitors, obtained from bacilli, for glycoside hydrolases” (Bayer Aktiengesellschaft, priority 1976, dated 1981)

Assays:
[1] = biological target: T1, saccharase from swine small intestine mucosa (Sus scrofa, UniProt P56729); assay: Saccharase test (saccharase inhibitor units, SIU); type: biochemical; settings: solid product
T1 construct: sucrase subunit cut from the sucrase-isomaltase precursor
Description: A saccharase inhibitor unit (SIU) is defined as the amount of inhibitor which inhibits two saccharase units to the extent of 50%. A saccharase unit (SU) is the amount of enzyme which, under the test conditions indicated below, splits 1 μmol of sucrose into glucose and fructose in one minute. The μmols of glucose formed are determined quantitatively with the aid of the glucose oxidase reaction under conditions under which further splitting of sucrose by saccharase no longer takes place. In order to carry out the test, 1-20 μg of inhibitor, or 1-20 μl of the solution to be tested, are added to 0.05 ml of saccharase solution adjusted to a content of 0.12 SU and the mixture is made up to 0.1 ml with 0.1 M sodium maleate buffer of pH 6.0. Suitably, a solubilised saccharase from swine small intestine mucosa according to B. Borgstrom, A. Dahlquist, Acta Chem. Scand. […] The mixture is equilibrated at 35° C. for 10 minutes and 0.1 ml of a 0.05 M sucrose solution in 0.1 M sodium maleate buffer of pH 6.0, prewarmed to 35° C., is then added. The mixture is incubated at 35° C. for 20 minutes and the saccharase reaction is stopped by adding 1 ml of glucose oxidase reagent and the mixture is incubated for a further 30 minutes at 35° C. […] 1 ml of 50% strength H2 SO4 is then added and the mixture is measured at 545 nm against a corresponding blank value. […]

[2] = tested on: microbial α-glucosidases; settings: T. NIWA et al. Agr. Biol. Chem. 34, 966; cited from earlier work

T1 sequence (P56729 with tags, fused parts or gaps): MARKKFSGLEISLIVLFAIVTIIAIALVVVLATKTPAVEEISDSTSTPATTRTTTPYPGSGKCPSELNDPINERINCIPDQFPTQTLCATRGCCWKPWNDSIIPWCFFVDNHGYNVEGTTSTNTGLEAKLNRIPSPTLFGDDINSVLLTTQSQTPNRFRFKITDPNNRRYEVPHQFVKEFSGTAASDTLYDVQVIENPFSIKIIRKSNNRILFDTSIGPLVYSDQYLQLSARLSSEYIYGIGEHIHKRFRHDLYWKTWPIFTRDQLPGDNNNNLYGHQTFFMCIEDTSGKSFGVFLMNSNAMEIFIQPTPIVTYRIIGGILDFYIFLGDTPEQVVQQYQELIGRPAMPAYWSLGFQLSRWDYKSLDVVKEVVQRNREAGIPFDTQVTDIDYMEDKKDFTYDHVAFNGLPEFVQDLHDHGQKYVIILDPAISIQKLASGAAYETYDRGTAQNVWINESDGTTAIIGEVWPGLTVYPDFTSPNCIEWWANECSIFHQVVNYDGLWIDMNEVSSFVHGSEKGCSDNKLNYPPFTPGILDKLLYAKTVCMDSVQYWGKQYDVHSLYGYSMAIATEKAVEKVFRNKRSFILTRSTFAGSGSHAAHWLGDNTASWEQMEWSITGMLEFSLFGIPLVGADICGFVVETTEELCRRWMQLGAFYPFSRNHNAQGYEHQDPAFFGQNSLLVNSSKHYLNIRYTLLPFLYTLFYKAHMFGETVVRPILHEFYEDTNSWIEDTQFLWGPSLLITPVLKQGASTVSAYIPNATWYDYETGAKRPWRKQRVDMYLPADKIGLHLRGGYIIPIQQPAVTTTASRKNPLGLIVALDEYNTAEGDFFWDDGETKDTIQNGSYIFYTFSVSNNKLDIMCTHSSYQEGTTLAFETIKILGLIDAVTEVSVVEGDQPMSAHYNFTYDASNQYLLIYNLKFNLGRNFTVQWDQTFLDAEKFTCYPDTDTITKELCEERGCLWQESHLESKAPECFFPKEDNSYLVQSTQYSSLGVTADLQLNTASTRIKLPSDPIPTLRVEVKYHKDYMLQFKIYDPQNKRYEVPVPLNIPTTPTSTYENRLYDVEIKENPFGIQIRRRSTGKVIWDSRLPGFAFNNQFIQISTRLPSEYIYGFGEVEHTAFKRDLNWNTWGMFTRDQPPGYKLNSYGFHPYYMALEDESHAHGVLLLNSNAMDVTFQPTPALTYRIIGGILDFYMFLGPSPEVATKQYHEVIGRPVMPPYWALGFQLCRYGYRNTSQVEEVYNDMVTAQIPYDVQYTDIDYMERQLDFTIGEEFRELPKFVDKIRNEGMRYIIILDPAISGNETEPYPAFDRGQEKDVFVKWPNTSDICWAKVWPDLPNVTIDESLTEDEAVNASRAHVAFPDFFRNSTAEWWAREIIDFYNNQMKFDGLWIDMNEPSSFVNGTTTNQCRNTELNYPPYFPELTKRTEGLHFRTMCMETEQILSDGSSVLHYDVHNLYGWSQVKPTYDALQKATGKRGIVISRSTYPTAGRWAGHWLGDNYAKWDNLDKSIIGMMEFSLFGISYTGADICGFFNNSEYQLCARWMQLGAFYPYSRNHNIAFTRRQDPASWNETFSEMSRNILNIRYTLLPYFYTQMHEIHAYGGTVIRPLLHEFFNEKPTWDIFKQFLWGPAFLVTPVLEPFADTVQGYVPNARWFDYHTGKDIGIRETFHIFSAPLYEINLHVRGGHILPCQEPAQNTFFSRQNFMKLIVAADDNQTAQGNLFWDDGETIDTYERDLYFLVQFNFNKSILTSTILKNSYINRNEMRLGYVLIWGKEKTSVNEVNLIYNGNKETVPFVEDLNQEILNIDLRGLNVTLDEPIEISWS

specific saccharase-inhibitory activity [1]	Compound	inhibition of microbial α-glucosidases [2]
540,000 SIU/g	OC[C@H]1NC[C@H](O)[C@@H](O)[C@@H]1O [Example 34, 1-desoxynojirimycin]	
	OC[C@H]1NC(O)[C@H](O)[C@@H](O)[C@@H]1O (some centres unmarked) [nojirimycin]	inhibits
